According to paper PMC5063900, “A phase 1 study of the safety, tolerability, pharmacokinetics, and pharmacodynamics of TAK-063, a selective PDE10A inhibitor” (Psychopharmacology, 2016):

Test: Treatment-emergent adverse events, phase 1 single-rising-dose study in healthy subjects
Format: in vivo, human
Experimental: Healthy Japanese and non-Japanese subjects between 18 and 55 years of age were recruited to participate in the study. Criteria for exclusion included prior treatment with any investigational compound within 30 days of the first TAK-063 dose, a positive test for drugs of abuse or nicotine, and an increased risk for suicide. […] Following a washout period of 7 days, subjects in cohort 3 (100 mg) received the same dose (100 mg) but under fed conditions.
The study assessed safety and tolerability in all subjects for the 4-day study duration. The primary endpoints were the percentage of subjects who experienced at least one treatment-emergent adverse event (TEAE), as well as the percentage of subjects who met predefined criteria for safety laboratory tests, vital sign measurements, and safety parameters following TAK-063 administration. The secondary endpoints were PK parameters for TAK-063 and M-I, assessing drug exposure at each dose, and the effect of food coadministration on TAK-063 PK. Exploratory endpoints included the effects of TAK-063 on domains of cognition as assessed by a computerized battery, CNS Vital Signs (CNSVS).
Adverse events, clinical laboratory tests, vital signs, 12-lead electrocardiograms (ECGs), and Columbia-Suicide Severity Rating Scale (C-SSRS) were all monitored. Intensity of AEs was classified as mild, moderate, or severe, and each AE was classified as to its relation to study drug.
Laboratory tests evaluated hematology, serum chemistry, urine, and hormone levels. Vital signs and ECGs were collected at screening, check-in, within 1 h predose, serially postdose, and at study exit, while the C-SSRS was administered at screening, check-in, and study exit. Any events reported on the C-SSRS and clinically significant laboratory abnormalities were reported as AEs.

[1] = Japanese subjects, TAK-063 Total (n = 30)
[2] = Japanese subjects, single 3 mg dose (n = 5)
[3] = Japanese subjects, single 10 mg dose (n = 5)
[4] = Japanese subjects, single 30 mg dose (n = 5)
[5] = Japanese subjects, single 100 mg dose (n = 5)
[6] = Japanese subjects, single 300 mg dose (n = 5)
[7] = Japanese subjects, single 1000 mg dose (n = 5)
[8] = all TAK-063-treated subjects, all cohorts
[9] = all subjects, TAK-063 Total (n = 66)
[10] = all subjects, single 3 mg dose (n = 11)
[11] = all subjects, single 10 mg dose (n = 11)
[12] = all subjects, single 30 mg dose (n = 11)

COc1cn(-c2ccc(-n3cccn3)cc2F)nc(-c2ccnn2-c2ccccc2)c1=O [TAK-063]
Severe AE: orthostatic hypotension, number of subjects (300 mg): 1
Severe AE: somnolence, number of subjects (1000 mg): 2
AEs of mild intensity (55/63 AEs): 87.3%
Total incidence of TEAEs (Japanese subjects treated with TAK-063): 43.3%
Adverse event: Dizziness [1]: 1 (3.3) n (%)
Adverse event: Epistaxis [1]: 1 (3.3) n (%)
Adverse event: Headache [1]: 1 (3.3) n (%)
Adverse event: Muscle tightness [1]: 1 (3.3) n (%)
Adverse event: Nausea [1]: 1 (3.3) n (%)
Adverse event: Orthostatic hypotension [1]: 4 (13.3) n (%)
Adverse event: Orthostatic tachycardia [1]: 5 (16.7) n (%)
Adverse event: Somnolence [1]: 10 (33.3) n (%)
Adverse event: Vomiting [1]: 2 (6.7) n (%)
Adverse event: Dizziness [2]: 0 n (%)
Adverse event: Epistaxis [2]: 0 n (%)
Adverse event: Headache [2]: 0 n (%)
Adverse event: Muscle tightness [2]: 0 n (%)
Adverse event: Nausea [2]: 0 n (%)
Adverse event: Orthostatic hypotension [2]: 0 n (%)
Adverse event: Orthostatic tachycardia [2]: 0 n (%)
Adverse event: Somnolence [2]: 0 n (%)
Adverse event: Vomiting [2]: 0 n (%)
Adverse event: Dizziness [3]: 0 n (%)
Adverse event: Epistaxis [3]: 0 n (%)
Adverse event: Headache [3]: 0 n (%)
Adverse event: Muscle tightness [3]: 0 n (%)
Adverse event: Nausea [3]: 0 n (%)
Adverse event: Orthostatic hypotension [3]: 0 n (%)
Adverse event: Orthostatic tachycardia [3]: 0 n (%)
Adverse event: Somnolence [3]: 0 n (%)
Adverse event: Vomiting [3]: 0 n (%)
Adverse event: Dizziness [4]: 0 n (%)
Adverse event: Epistaxis [4]: 1 (20.0) n (%)
Adverse event: Headache [4]: 0 n (%)
Adverse event: Muscle tightness [4]: 1 (20.0) n (%)
Adverse event: Nausea [4]: 0 n (%)
Adverse event: Orthostatic hypotension [4]: 0 n (%)
Adverse event: Orthostatic tachycardia [4]: 1 (20.0) n (%)
Adverse event: Somnolence [4]: 1 (20.0) n (%)
Adverse event: Vomiting [4]: 0 n (%)
Adverse event: Dizziness [5]: 0 n (%)
Adverse event: Epistaxis [5]: 0 n (%)
Adverse event: Headache [5]: 1 (20.0) n (%)
Adverse event: Muscle tightness [5]: 0 n (%)
Adverse event: Nausea [5]: 0 n (%)
Adverse event: Orthostatic hypotension [5]: 1 (20.0) n (%)
Adverse event: Orthostatic tachycardia [5]: 0 n (%)
Adverse event: Somnolence [5]: 4 (80.0) n (%)
Adverse event: Vomiting [5]: 1(20.0) n (%)
Adverse event: Dizziness [6]: 0 n (%)
Adverse event: Epistaxis [6]: 0 n (%)
Adverse event: Headache [6]: 0 n (%)
Adverse event: Muscle tightness [6]: 0 n (%)
Adverse event: Nausea [6]: 0 n (%)
Adverse event: Orthostatic hypotension [6]: 1 (20.0) n (%)
Adverse event: Orthostatic tachycardia [6]: 1 (20.0) n (%)
Adverse event: Somnolence [6]: 2 (40.0) n (%)
Adverse event: Vomiting [6]: 0 n (%)
Adverse event: Dizziness [7]: 1 (20.0) n (%)
Adverse event: Epistaxis [7]: 0 n (%)
Adverse event: Headache [7]: 0 n (%)
Adverse event: Muscle tightness [7]: 0 n (%)
Adverse event: Nausea [7]: 1 (20.0) n (%)
Adverse event: Orthostatic hypotension [7]: 2 (40.0) n (%)
Adverse event: Orthostatic tachycardia [7]: 3 (60.0) n (%)
Adverse event: Somnolence [7]: 3 (60.0) n (%)
Adverse event: Vomiting [7]: 1 (20.0) n (%)
Subjects experiencing drug-related AEs (across all cohorts): 32 of 66
Total number of drug-related AEs (across all cohorts): 57
Drug-related AE: orthostatic hypotension, incidence [8]: 10.6%
Drug-related AE: orthostatic tachycardia, incidence [8]: 19.7%
Drug-related AE: somnolence, incidence [8]: 33.3%
Adverse event: Anxiety [9]: 1 (1.5) n (%)
Adverse event: Blurred vision [9]: 1 (1.5) n (%)
Adverse event: Dizziness [9]: 3 (4.5) n (%)
Adverse event: Dysarthria [9]: 1(1.5) n (%)
Adverse event: Epistaxis [9]: 1 (1.5) n (%)
Adverse event: Headache [9]: 2 (3.0) n (%)
Adverse event: Hypotension [9]: 1 (1.5) n (%)
Adverse event: Muscle tightness [9]: 1 (1.5) n (%)
Adverse event: Nausea [9]: 3 (4.5) n (%)
Adverse event: Orthostatic hypotension [9]: 7 (10.6) n (%)
Adverse event: Orthostatic tachycardia [9]: 13 (19.7) n (%)
Adverse event: Somnolence [9]: 22 (33.3) n (%)
Adverse event: Vomiting [9]: 3 (4.5) n (%)
Adverse event: Anxiety [10]: 0 n (%)
Adverse event: Blurred vision [10]: 0 n (%)
Adverse event: Dizziness [10]: 0 n (%)
Adverse event: Dysarthria [10]: 0 n (%)
Adverse event: Epistaxis [10]: 0 n (%)
Adverse event: Headache [10]: 0 n (%)
Adverse event: Hypotension [10]: 0 n (%)
Adverse event: Muscle tightness [10]: 0 n (%)
Adverse event: Nausea [10]: 0 n (%)
Adverse event: Orthostatic hypotension [10]: 0 n (%)
Adverse event: Orthostatic tachycardia [10]: 2 (18.2) n (%)
Adverse event: Somnolence [10]: 0 n (%)
Adverse event: Vomiting [10]: 0 n (%)
Adverse event: Anxiety [11]: 0 n (%)
Adverse event: Blurred vision [11]: 0 n (%)
Adverse event: Dizziness [11]: 0 n (%)
Adverse event: Dysarthria [11]: 0 n (%)
Adverse event: Epistaxis [11]: 0 n (%)
Adverse event: Headache [11]: 0 n (%)
Adverse event: Hypotension [11]: 0 n (%)
Adverse event: Muscle tightness [11]: 0 n (%)
Adverse event: Nausea [11]: 0 n (%)
Adverse event: Orthostatic hypotension [11]: 0 n (%)
Adverse event: Orthostatic tachycardia [11]: 0 n (%)
Adverse event: Somnolence [11]: 0 n (%)
Adverse event: Vomiting [11]: 0 n (%)
Adverse event: Anxiety [12]: 0 n (%)
Adverse event: Blurred vision [12]: 0 n (%)
Adverse event: Dizziness [12]: 1 (9.1) n (%)
Adverse event: Dysarthria [12]: 0 n (%)
Adverse event: Epistaxis [12]: 1 (9.1) n (%)
Adverse event: Headache [12]: 0 n (%)
Adverse event: Hypotension [12]: 0 n (%)
Adverse event: Muscle tightness [12]: 1 (9.1) n (%)
Adverse event: Nausea [12]: 2 (18.2) n (%)
Adverse event: Orthostatic hypotension [12]: 0 n (%)
Adverse event: Orthostatic tachycardia [12]: 1 (9.1) n (%)
